# Assay results: patent US11319299B2, “Substituted carboxamides as inhibitors of WDR5 protein-protein binding” (PROPELLON THERAPEUTICS INC., priority 2016, dated 2022)
# Biological target: WDR5 (Homo sapiens (Human), UniProt P61964)
# Assay: Surface Plasmon Resonance (SPR) assay, KD and residence time
# Format: binding
# Settings: surface plasmon resonance (SPR) assay; read-out: WDR5 binding affinity (KD)
row,Compound,Kd [nM]
1,"C[C@@H]1CN(c2ncc(-c3cc(NC(=O)c4c[nH]c(=O)cc4C(F)F)c(N4C[C@@H](C)N(C)[C@@H](C)C4)cc3F)cn2)CCO1 [Example 386, 4-(difluoromethyl)-N-[4-fluoro-5-[2-[(2R)-2-methylmorpholin-4-yl]pyrimidin-5-yl]-2-[(3R,5S)-3,4,5-trimethylpiperazin-1-yl]phenyl]-6-oxo-1H-pyridine-3-carboxamide]",1.49
2,"C[C@@H]1CN(c2ncc(-c3cc(NC(=O)c4c[nH]c(=O)cc4C(F)(F)F)c(N4C[C@@H](C)N(C)[C@@H](C)C4)cc3F)cn2)CCO1 [Example 388, N-[4-fluoro-5-[2-[(2R)-2-methylmorpholin-4-yl]pyrimidin-5-yl]-2-[(3R,5S)-3,4,5-trimethylpiperazin-1-yl]phenyl]-6-oxo-4-(trifluoromethyl)-1H-pyridine-3-carboxamide]",0.788
3,"C[C@@H]1CN(c2cc(F)c(C3=CCCN(c4ncccn4)C3)cc2NC(=O)c2cn(C)c(=O)cc2C(F)(F)F)C[C@H](C)N1C [Example 391, N-[4-fluoro-5-(1-pyrimidin-2-yl-3,6-dihydro-2H-pyridin-5-yl)-2-[(3R,5S)-3,4,5-trimethylpiperazin-1-yl]phenyl]-1-methyl-6-oxo-4-(trifluoromethyl)pyridine-3-carboxamide]",4.27
4,"C[C@@H]1CN(c2cc(F)c(N3CCN(Cc4ccc(F)cc4)CC3)cc2NC(=O)c2c[nH]c(=O)cc2C(F)(F)F)C[C@H](C)N1C [Example 392, N-[4-fluoro-5-[4-[(4-fluorophenyl)methyl]piperazin-1-yl]-2-[(3R,5S)-3,4,5-trimethylpiperazin-1-yl]phenyl]-6-oxo-4-(trifluoromethyl)-1H-pyridine-3-carboxamide]",8.08
5,"C[C@@H]1CN(c2cc(F)c(N3CCN(c4ncccn4)CC3)cc2NC(=O)c2c[nH]c(=O)cc2C(F)(F)F)C[C@H](C)N1C [Example 393, N-[4-fluoro-5-(4-pyrimidin-2-ylpiperazin-1-yl)-2-[(3R,5S)-3,4,5-trimethylpiperazin-1-yl]phenyl]-6-oxo-4-(trifluoromethyl)-1H-pyridine-3-carboxamide]",13.3
6,"C[C@@H]1CN(c2cc(F)c(C3=CCN(c4ncc(CO)cn4)CC3)cc2NC(=O)c2c[nH]c(=O)cc2C(F)(F)F)C[C@H](C)N1C [Example 394, N-[4-fluoro-5-[1-[5-(hydroxymethyl)pyrimidin-2-yl]-3,6-dihydro-2H-pyridin-4-yl]-2-[(3R,5S)-3,4,5-trimethylpiperazin-1-yl]phenyl]-6-oxo-4-(trifluoromethyl)-1H-pyridine-3-carboxamide]",0.775
7,"C[C@@H]1CN(c2ncc(-c3cc(NC(=O)c4c[nH]c(=O)cc4C(F)F)c(N4CCN(C)[C@@H](C)C4)cc3F)cn2)CCO1 [Example 396, 4-(difluoromethyl)-N-[4-fluoro-2-[(3S)-3,4-dimethylpiperazin-1-yl]-5-[2-[(2R)-2-methylmorpholin-4-yl]pyrimidin-5-yl]phenyl]-6-oxo-1H-pyridine-3-carboxamide]",0.564

# Same assay, conditions: surface plasmon resonance (SPR); read-out: WDR5 binding affinity (KD)
row,Compound,Kd [nM]
1,"C[C@@H]1CN(c2cc(F)c(-c3ccnc(S(C)(=O)=O)n3)cc2NC(=O)c2c[nH]c(=O)cc2C(F)(F)F)C[C@H](C)N1C [Example 399, N-[4-fluoro-5-(2-methylsulfonylpyrimidin-4-yl)-2-[(3R,5S)-3,4,5-trimethylpiperazin-1-yl]phenyl]-6-oxo-4-(trifluoromethyl)-1H-pyridine-3-carboxamide]",4.58
2,"C[C@@H]1CN(c2cc(F)c(C3=CCN(c4ncc(C#N)cn4)CC3)cc2NC(=O)c2c[nH]c(=O)cc2C(F)(F)F)C[C@H](C)N1C [Example 404, N-[5-[1-(5-cyanopyrimidin-2-yl)-3,6-dihydro-2H-pyridin-4-yl]-4-fluoro-2-[(3R,5S)-3,4,5-trimethylpiperazin-1-yl]phenyl]-6-oxo-4-(trifluoromethyl)-1H-pyridine-3-carboxamide]",1
3,"C[C@@H]1CN(c2cc(F)c(C3=CCN(c4ncc(CN(C)C)cn4)CC3)cc2NC(=O)c2c[nH]c(=O)cc2C(F)(F)F)C[C@H](C)N1C [Example 405, N-[5-[1-[5-[(dimethylamino)methyl]pyrimidin-2-yl]-3,6-dihydro-2H-pyridin-4-yl]-4-fluoro-2-[(3R,5S)-3,4,5-trimethylpiperazin-1-yl]phenyl]-6-oxo-4-(trifluoromethyl)-1H-pyridine-3-carboxamide]",0.095
4,"C[C@@H]1CN(c2cc(F)c(C3=CCN(c4ncc(CN5CCOCC5)cn4)CC3)cc2NC(=O)c2c[nH]c(=O)cc2C(F)(F)F)C[C@H](C)N1C [Example 406, N-[4-fluoro-5-[1-[5-(morpholin-4-ylmethyl)pyrimidin-2-yl]-3,6-dihydro-2H-pyridin-4-yl]-2-[(3R,5S)-3,4,5-trimethylpiperazin-1-yl]phenyl]-6-oxo-4-(trifluoromethyl)-1H-pyridine-3-carboxamide]",0.457
5,"C[C@@H]1CN(c2cc(F)c(C3=CCN(c4ncc(CN5CCN(C)CC5)cn4)CC3)cc2NC(=O)c2c[nH]c(=O)cc2C(F)(F)F)C[C@H](C)N1C [Example 407, N-[4-fluoro-5-[1-[5-[(4-methylpiperazin-1-yl)methyl]pyrimidin-2-yl]-3,6-dihydro-2H-pyridin-4-yl]-2-[(3R,5S)-3,4,5-trimethylpiperazin-1-yl]phenyl]-6-oxo-4-(trifluoromethyl)-1H-pyridine-3-carboxamide]",0.231
6,"CC(C)COC(=O)N1CCC=C(c2cc(NC(=O)c3c[nH]c(=O)cc3C(F)(F)F)c(N3C[C@@H](C)N(C)[C@@H](C)C3)cc2F)C1 [Example 408, 2-methylpropyl 5-[2-fluoro-5-[[6-oxo-4-(trifluoromethyl)-1H-pyridine-3-carbonyl]amino]-4-[(3R,5S)-3,4,5-trimethylpiperazin-1-yl]phenyl]-3,6-dihydro-2H-pyridine-1-carboxylate]",2.75
7,"C[C@@H]1CN(c2cc(F)c(C3=CCCN(c4ncc(C=O)cn4)C3)cc2NC(=O)c2c[nH]c(=O)cc2C(F)(F)F)C[C@H](C)N1C [Example 409, N-[4-fluoro-5-[1-(5-formylpyrimidin-2-yl)-3,6-dihydro-2H-pyridin-5-yl]-2-[(3R,5S)-3,4,5-trimethylpiperazin-1-yl]phenyl]-6-oxo-4-(trifluoromethyl)-1H-pyridine-3-carboxamide]",0.229
8,"C[C@@H]1CN(c2cc(F)c(C3=CCCN(c4ncc(CN5CCN(C)CC5)cn4)C3)cc2NC(=O)c2c[nH]c(=O)cc2C(F)(F)F)C[C@H](C)N1C [Example 416, N-[4-fluoro-5-[1-[5-[(4-methylpiperazin-1-yl)methyl]pyrimidin-2-yl]-3,6-dihydro-2H-pyridin-5-yl]-2-[(3R,5S)-3,4,5-trimethylpiperazin-1-yl]phenyl]-6-oxo-4-(trifluoromethyl)-1H-pyridine-3-carboxamide]",0.108
9,"CCN(CC)[C@@H]1CCN(c2cc(F)c(-c3cnc(N4CCOCC4)nc3)cc2NC(=O)c2c[nH]c(=O)cc2C(F)(F)F)C1 [Example 419, N-[4-fluoro-5-(2-morpholin-4-ylpyrimidin-5-yl)-2-[(3R)-3-(diethylamino)pyrrolidin-1-yl]phenyl]-6-oxo-4-(trifluoromethyl)-1H-pyridine-3-carboxamide]",5.37
10,"CC(C)N(C)[C@@H]1CCN(c2cc(F)c(-c3cnc(N4CCOCC4)nc3)cc2NC(=O)c2c[nH]c(=O)cc2C(F)(F)F)C1 [Example 420, N-[4-fluoro-5-(2-morpholin-4-ylpyrimidin-5-yl)-2-[(3R)-3-[methyl(propan-2-yl)amino]pyrrolidin-1-yl]phenyl]-6-oxo-4-(trifluoromethyl)-1H-pyridine-3-carboxamide]",172
11,"C[C@@H]1CN(c2ccc(-c3cc(NC(=O)c4cn(C)c(=O)cc4C(F)(F)F)c(N4C[C@@H](C)N(C)[C@@H](C)C4)cc3F)cn2)C[C@H](C)O1 [Example 422, N-[4-fluoro-5-[6-[(2R,6S)-2,6-dimethylmorpholin-4-yl]pyridin-3-yl]-2-[(3S,5R)-3,4,5-trimethylpiperazin-1-yl]phenyl]-1-methyl-6-oxo-4-(trifluoromethyl)pyridine-3-carboxamide]",2.43
12,"C[C@@H]1CN(c2cc(F)c(-c3cnc(N4CCC(C)(O)CC4)nc3)cc2NC(=O)c2c[nH]c(=O)cc2C(F)(F)F)C[C@H](C)N1C [Example 425, N-[4-fluoro-5-[2-(4-hydroxy-4-methylpiperidin-1-yl)pyrimidin-5-yl]-2-[(3R,5S)-3,4,5-trimethylpiperazin-1-yl]phenyl]-6-oxo-4-(trifluoromethyl)-1H-pyridine-3-carboxamide]",1.06
13,"CCN(CC)[C@@H]1CCN(c2cc(F)c(-c3cnc(N4CCOCC4)nc3)cc2NC(=O)c2cn(C)c(=O)cc2C(F)(F)F)C1 [Example 428, N-[4-fluoro-5-(2-morpholin-4-ylpyrimidin-5-yl)-2-[(3R)-3-(diethylamino)pyrrolidin-1-yl]phenyl]-1-methyl-6-oxo-4-(trifluoromethyl)pyridine-3-carboxamide]",145
14,"C[C@@H]1CN(c2ncc(-c3cc(NC(=O)c4ccc(F)cc4C(F)(F)F)c(N4C[C@@H](C)N(C)[C@@H](C)C4)cc3F)cn2)C[C@H](C)O1 [Example 431, 4-fluoro-N-[4-fluoro-5-[2-[(2R,6S)-2,6-dimethylmorpholin-4-yl]pyrimidin-5-yl]-2-[(3S,5R)-3,4,5-trimethylpiperazin-1-yl]phenyl]-2-(trifluoromethyl)benzamide]",0.649
15,"C[C@@H]1CN(c2ccc(-c3cc(NC(=O)c4ccc(F)cc4C(F)(F)F)c(N4C[C@@H](C)N(C)[C@@H](C)C4)cc3F)cn2)C[C@H](C)O1 [Example 432, 4-fluoro-N-[4-fluoro-5-[6-[(2R,6S)-2,6-dimethylmorpholin-4-yl]pyridin-3-yl]-2-[(3S,5R)-3,4,5-trimethylpiperazin-1-yl]phenyl]-2-(trifluoromethyl)benzamide]",2.31
16,"C[C@@H]1CN(c2cc(F)c(-c3ccc(N4CCOCC4)c(F)c3)cc2NC(=O)c2c[nH]c(=O)cc2C(F)F)C[C@H](C)N1C [Example 436, 4-(difluoromethyl)-N-[4-fluoro-5-(3-fluoro-4-morpholin-4-ylphenyl)-2-[(3R,5S)-3,4,5-trimethylpiperazin-1-yl]phenyl]-6-oxo-1H-pyridine-3-carboxamide]",1.39
